The text below walks through data of ChEMBL document CHEMBL1132272, “Prediction of ligand-receptor binding thermodynamics by free energy force field three-dimensional quantitative structure-activity relationship analysis: applications to a set of glucose analogue inhibitors of glycogen phosphorylase” (J Med Chem, 1999).

The experiment can be described thus: The compound was evaluated for the inhibition of glycogen phosphorylase.

As for `N#CC[C@@H]1O[C@H](CO)[C@@H](O)[C@H](O)[C@H]1O`, the inhibition constant (Ki) – broadly, a dissociation constant, usually derived from enzyme kinetics or from competition with a known ligand – amounted to 9000 µM.
To `OC[C@H]1O[C@](O)(CO)[C@@H](O)[C@H](O)[C@H]1O` belongs 15800 µM.
For `OCC1OC(S)C(O)C(O)C1O` (stereo unspecified), the Ki is 1000 µM.
In the case of `CC1OC(CO)C(O)C(O)C1O` (stereo unspecified) it was 53100 µM; in that of `OCC1OC(CO)C(O)C(O)C1O` (stereo unspecified), 1500 µM.
To `O=C(Nc1ccccc1)C1OC(CO)C(O)C(O)C1O` (stereo unspecified) belongs 5400 µM.
In the case of `NNC(=O)[C@@H]1O[C@H](CO)[C@@H](O)[C@H](O)[C@H]1O` it was 980 µM.
Turning to `O=C(CCl)N[C@H]1O[C@H](CO)[C@@H](O)[C@H](O)[C@H]1O`, the affinity corresponds to a Ki of 45 µM.
To `NC(=O)N[C@H]1O[C@H](CO)[C@@H](O)[C@H](O)[C@H]1O` belongs 140 µM; to `CCCC(=O)N[C@H]1O[C@H](CO)[C@@H](O)[C@H](O)[C@H]1O`, 94 µM.
To `O=C(N[C@H]1O[C@H](CO)[C@@H](O)[C@H](O)[C@H]1O)c1ccccc1` belongs 81 µM.
`CCC(=O)N[C@H]1O[C@H](CO)[C@@H](O)[C@H](O)[C@H]1O` returned a Ki of 39 µM.
In the case of `CC(=O)N[C@H]1O[C@H](CO)[C@@H](O)[C@H](O)[C@H]1O` it was 32 µM; in that of `O=C(CBr)N[C@H]1O[C@@H](CO)[C@@H](O)[C@H](O)[C@@H]1O`, 44 µM.
In the case of `NCC(=O)N[C@H]1O[C@@H](CO)[C@@H](O)[C@H](O)[C@@H]1O` it was 370 µM; in that of `CO[C@@H]1O[C@H](CO)[C@H](O)[C@H](O)[C@H]1O`, 24700 µM; in that of `NCC1OC(CO)C(O)C(O)C1O` (stereo unspecified), 34500 µM.
In the case of `CNC(=O)C1OC(CO)C(O)C(O)C1O` (stereo in doubt; 8) it was 160 µM; in that of `NC(=O)C1OC(CO)C(O)C(O)C1O` (stereo in doubt; 10), 370 µM; in that of `NC(=O)C1OC(CO)C(O)C(O)C1O` (stereo in doubt; 11), 440 µM.
The compound `CNC(=O)C1OC(CO)C(O)C(O)C1O` (stereo in doubt; 22) had a Ki of 36700 µM.
